The record followed here is patent US10844052B2, “LLS compounds for treatment of cancer” (THE REGENTS OF THE UNIVERSITY OF CALIFORNIA, priority 2016, dated 2020).

One data set deals with SKOV3. The data set is described as follows: Anti-cancer activity against ovarian cancer cells SKOV3 (cell killing in solution / in vitro cell proliferation). The data set is classed as cell-based.
The next data set relates to PC3. The data set is described as follows: In vitro cell proliferation / killing assay on PC3 prostate cancer cells. To be noted: Homo sapiens, PC-3. The data set is classed as cell-based. As for the experimental part: Biotinylated LLS2 was synthesized in solution and loaded it onto a streptavidin-coated plate. The biotinylated LLS2 immobilized on the plate killed approximately 21% of SKOV3 ovarian cancer cells at 100 μM loading, 16% at 50 μM and 14% at 25 μM (FIG. 4). The killing effect of the LLS2 compound was also tested in solution. […] In addition, LLS2 can kill pancreatic cancer cell line XPA3, prostate cancer cell line PC3, colon cancer cell line HT29, breast cancer cell line MCF7 and lung cancer cell line A549 (FIG. 4).

The test system of data set [1] is PC3 prostate cancer cells. The data set is described as follows: Cell viability of prostate cancer PC3 cells after 72 hours treatment. The data set is classed as cell-based. To be noted: Homo sapiens. As for the experimental part: Effects of compounds LLS42-LLS80 on the viability of PC3 prostate cancer cells after 72 hours of treatment are shown in Table 2 below: […]

The subject of data set [2] is 22RV1 prostate cancer cells. The data set is described as follows: Cell viability of prostate cancer 22RV1 cells after 72 hours treatment. Format: cell-based. To be noted: Homo sapiens.
The test system of a further data set is PC3 tumor. The data set is described as follows: In vivo efficacy study of LLS30 on PC3 tumor.
For data set [3], the system named is sNF96.2 malignant peripheral nerve sheath tumor (MPNST) cells. The data set is described as follows: Cytotoxicity against sNF96.2 MPNST cells. Format: cell-based. As for the experimental part: (§1) The biochemical and biological effects of LLS30 on sNF96.2 and sNF2.2 malignant peripheral nerve sheath tumor (MPNST) cells were evaluated.
The subject of data set [4] is sNF2.2 malignant peripheral nerve sheath tumor (MPNST) cells. The data set is described as follows: Cytotoxicity and PTX combination on sNF2.2 MPNST cells. Format: cell-based. As for the experimental part: as §1
A further data set deals with ERK phosphorylation. The data set is described as follows: Phosphorylation of ERK / MEK/ERK pathway in MPNST cells. The data set is classed as cell-based. As for the experimental part:
(b) LLS30 exerts death on MPNST cells.
as §1

A short description of data set [5]: Combination of LLS30 with Enzalutamide. Format: cell-based.

For the molecule `NC(=O)CC(NCc1ccc(Cl)c(Cl)c1)c1ccc2c(c1)nc(-c1ccc(N(CCO)CCO)cc1)n2Cc1ccc(Cl)c(Cl)c1` (stereo not shown) [LLS30, 3-(2-(4-(bis(2-hydroxyethyl)amino)phenyl)-1-(3,4-dichlorobenzyl)-1H-benzo[d]imidazol-5-yl)-3-((3,4-dichlorobenzyl)amino)propanamide], the IC50 (commonly the concentration at which inhibition is half-maximal) with SKOV3 (Homo sapiens, SK-OV-3, ovarian cancer cells SKOV3) was determined as 10.2 µM; in the data set with PC3, 9.2 µM; in [3] it was 16 µM; in data set [4] it was 26 µM. Besides, the “potency relative to LLS2” value with SKOV3 (in vitro cell proliferation assays) is recorded as “about 2 fold”. The viability (usually a per cent measure of how many cells are alive, often set against a control) at 2.5 µM in [1] (PC-3, 2.5 μM) is 100%; in data set [2] (2.5 μM), 47%. Besides, the viability at 5 µM is 95% in data set [1] (PC-3, 5 μM) and 3% in [2] (5 μM). The viability at 10 µM in data set [1] (PC-3, 10 μM) is 73%; in data set [2] (10 μM) it was 0%. For the same molecule, in data set [1] (PC-3, 20 μM), the viability at 20 µM is 10%. Besides, the “growth of PC3 tumor” value in the data set with PC3 tumor (10 mg/kg, i.v. q3d×4) was “significantly suppressed”. Moreover, in the data set with PC3 tumor (LLS30-treated tumor), the Ki-67 in tumor entry is recorded as “down-regulated”. Also, in the data set with PC3 tumor (LLS30-treated tumor), the “cleaved caspase-3 in tumor” value is “more cleaved caspase-3 positive cells”. For the same molecule, in the data set on PC3 tumor (LLS30 with PTX, i.v. q3d×4), the “PC3 tumor response, combination with PTX” value is given as “tumor regression”. The “CBC, platelets, liver function tests and renal panel” value in the data set on PC3 tumor (after 4 courses of treatment) is listed as “remained within normal limits”. Moreover, in the data set on PC3 tumor (necrotic cells), the “histological analysis of the resected tumor” value was “many necrotic cells were present”. For the same molecule, the “C.I. (combination index) with PTX” value in data set [4] (LLS30 with PTX) came out at 0.1. Moreover, the MEK/ERK pathway result with ERK phosphorylation (2 μM, MPNST cells (FIG. 12 legend)) is recorded as “suppresses”. Also, the “Phosphorylation of ERK” value with ERK phosphorylation (24 hrs treatment, 25 μM, MPNST cells) was “totally suppressed”. Further, the “anti-cancer effect in combination with Enzalutamide” value in [5] is “synergistic anti-cancer effect”.
